Test results reported in PMC9663686, “Proline, hydroxyproline, and pyrrolidone carboxylic acid derivatives as highly efficient but reversible transdermal permeation enhancers” (Scientific Reports, 2022).
Marks after values point to notes of the source that are not given here.

Columns and labels:
3T3 mouse fibroblasts = experiment: MTT cell viability assay, 3T3; type: cell-based; conditions: NIH3T3, 48-h incubation, mean ± SEM, read-out: IC50, 3T3 cells, MTT assay
Excerpt: Next, the in vitro toxicities of the most promising enhancers Pro3 and Pro4, along with the parent Pro2, on spontaneously immortalized human keratinocytes (HaCaT) and Swiss albino mouse embryonic fibroblasts (3T3) were studied (Fig. 3). […] The cellular toxicities were further probed using the 3-(4,5-dimethylthiazol-2-yl)-2,5-diphenyltetrazolium bromide (MTT) uptake assay, based on the transformation of yellow MTT into purple formazan by mitochondrial reductases of living cells. The MTT assay also yielded toxicity values in tens of µM with trends to higher toxicity with a longer acyl chain length (thus also higher lipophilicity) of enhancers (Fig. 3).
Cell viability was determined via 3-(4,5-dimethylthiazol-2-yl)-2,5-diphenyltetrazolium bromide (MTT) and neutral red (NR) uptake assays after 48-h incubation with the enhancers (see Supplementary data for details).
Both cell lines were cultivated in Dulbecco’s modified Eagle’s medium (DMEM, Lonza, Basel, Switzerland) supplemented with 10% heat-inactivated fetal bovine serum (Merck, Darmstadt, Germany), 10 mM HEPES buffer (Merck, Darmstadt, Germany), and 1% penicillin/streptomycin solution (Lonza, Basel, Switzerland) in 75-cm^2 tissue culture flasks (TPP, Trasadingen, Switzerland) at 37°C in a humidified atmosphere of 5% CO2. Subconfluent cells were sub-cultured every 3-4 days.
For toxicity studies, the stock-solutions of studied compounds were prepared in dimethyl sulfoxide (DMSO). […]
After 48-h incubation with the studied enhancer, cell viability was determined via 3-(4,5-dimethylthiazol-2-yl)-2,5-diphenyltetrazolium bromide (MTT) uptake assay based on the transformation of yellow MTT into purple formazan by mitochondrial reductase activity of living cells. […] Afterward, the cell viability was assessed by optical density measurement using a Tecan Infinite 200 M plate reader (Tecan, Grödig, Austria) at λ = 570 nm.
The viability of each experimental group was expressed as the percentage of the untreated controls incubated under the same conditions (100%).

human skin = experiment: Electrical impedance of human skin in vitro, reversibility; conditions: for impedance 1 h after the sample had been removed / impedance 4 h after the sample had been removed / impedance 8 h after the sample had been removed / impedance 12 h after the sample had been removed / impedance 24 h after the sample had been removed: 24-h application of 1% enhancer (1% Azone, 5% SDS) in 60% PG; for impedance 1 h after the sample had been removed / impedance 4 h after the sample had been removed / impedance 8 h after the sample had been removed / impedance 12 h after the sample had been removed / impedance 24 h after the sample had been removed / impedance before sample application (baseline): mean ± SEM; for fold decrease of skin impedance compared to baseline (range over enhancers and control): 24 h treatment, baseline 25–29 kΩ × cm^2; for recovery of skin impedance after sample removal: after 24-h application, followed 24 h after removal
Excerpt: We further investigated the direct effects of the selected enhancers on the skin barrier assessed by TEWL and the electrical impedance of human skin in vitro. TEWL is a method commonly used in dermatology[38] to study, for example, the irritant potential of chemicals, skin barrier recovery, or effect of topical formulations, and permeation enhancers[17],[21],[41]–[44]. Electrical impedance measures the opposition of the skin to alternating electrical current and is inversely proportional to the flux of ions. Thus, increased TEWL or decreased impedance indicates a barrier impairment[45],[46]. Electrical impedance or conductance measurements have been used to screen new enhancers or assess the irritation potential of compounds[13],[15],[17],[21],[32],[44],[47]–[50]. Both TEWL and impedance can distinguish between reversible and irreversible effects of enhancers on skin permeability[17],[21],[40],[44],[51].
Human skin was mounted in Franz diffusion cells in the same way as for the permeation studies. After 1-h equilibration, basal TEWL and impedance values were recorded. Then, 1% enhancer in 60% PG, 60% PG as a negative control, 1% Azone in 60% PG, or 5% SDS in 60% PG as positive (irreversible) controls was applied on the skin (100 µl/cm^2) for 24 h. The residual sample was washed with PBS and gently blotted dry. At 1, 4, 8, 12, and 24 h after sample removal, TEWL, and impedance values were recorded. TEWL was measured using AquaFlux AF 200 (Biox Systems Ltd, London, UK), employing the condenser-chamber measurement method at 26 ± 1.0 °C and 43 ± 3% relative air humidity. Electrical impedance was measured by LCR meter 4080 (Conrad electronic, Hirschau, Germany, measuring range 20 Ω–10 MΩ, error at kΩ values < 0.5%) operated in parallel mode with an alternating frequency of 120 Hz, which was also used in our previous work[21],[44].
Samples were removed from the skin after 24 h, and TEWL and impedance values were recorded in predetermined time intervals (1, 4, 8, 12, and 24 h after sample removal). Data are presented as the means ± SEM; n ≥ 3. * statistically significant difference compared to the baseline value before the sample application at p < 0.05. ^+ statistically significant compared to the value 1 h after the sample removal at p < 0.05.^ ≠ statistically significant compared to the control (60% PG without enhancer) at the same time point, at p < 0.05.

| SMILES | IC50 (3T3 mouse fibroblasts) [µM] | impedance 1 h after the sample had been removed (human skin) | impedance 4 h after the sample had been removed (human skin) | impedance 8 h after the sample had been removed (human skin) | impedance 12 h after the sample had been removed (human skin) | impedance 24 h after the sample had been removed (human skin) | fold decrease of skin impedance compared to baseline (range over enhancers and control) (human skin) | recovery of skin impedance after sample removal (human skin) | impedance before sample application (baseline) (human skin) [kΩ×cm^2] |
| --- | --- | --- | --- | --- | --- | --- | --- | --- | --- |
| CCCCCCCCCCCCOC(=O)C1CCCN1C(C)=O (stereo not drawn) [Pro2, N-acetyl proline dodecyl ester] | 92.4 ± 2.82 | 2.8 ± 0.1* kΩ×cm^2 | 6.0 ± 1.1*^≠ kΩ×cm^2 | 8.1 ± 1.7*^≠ kΩ×cm^2 | 8.6 ± 2.0*^≠ kΩ×cm^2 | 9.4 ± 2.6*^≠+ kΩ×cm^2 | 5–21 times | recovered incompletely | 25.2 ± 2.1 |
| CCCCCCCCCCCCOC(=O)C1CCCN1C(=O)CC (stereo not drawn) [Pro3] | 84.4 ± 1.5 | 1.4 ± 0.8* kΩ×cm^2 | 7.9 ± 0.4*^≠+ kΩ×cm^2 | 13.1 ± 0.7*^≠+ kΩ×cm^2 | 15.8 ± 1.0*^≠+ kΩ×cm^2 | 18.6 ± 0.9*^≠+ kΩ×cm^2 | 5–21 times | recovered incompletely | 28.9 ± 1.7 |
| CCCCCCCCCCCCOC(=O)C1CCCN1C(=O)CCC (stereo not drawn) [Pro4] | 63.9 ± 1.91 | 3.8 ± 0.8* kΩ×cm^2 | 11.5 ± 1.7*^+ kΩ×cm^2 | 18.3 ± 2.5*^+ kΩ×cm^2 | 21.2 ± 2.5*^+ kΩ×cm^2 | 23.8 ± 2.9^+ kΩ×cm^2 | 5–21 times | recovered to values similar to baseline within 24 h | 28.9 ± 2.6 |
